Data set [1] deals with other Corynebacteria and some Staphylococci. As to the kind of experiment: Release of lauric acid from Nα-lauroyl-L-glutamine by axilla bacteria. Type of data set: cell-based. The settings on record: same experiment as Table 1, Nα-lauroyl-L-glutamine as substrate. The procedure:
The axillary flora of 8 panellists was isolated with the detergent-scrub method: A 6 cm^2 area of the axilla was scrubbed with a phosphate buffer at pH 7 containing 1% Tween 80. The samples were spread-plated on tryptic soy agar amended with 5 g/L of Tween 80 and 1 g/L of lecithin. Single isolates obtained after 48 h incubation were subcultured and characterised. A total of 24 individual strains were identified based on colony and cell morphology, gram-reaction, lipophilic growth, lipase reaction and API identification kits (bioMerieux, France; coryneforms with the API coryne kit and cocci with the ID Staph 32 kit). The strains were grown overnight in a liquid medium (Mueller-Hinton amended with 0.01% Tween 80), harvested by centrifugation and resuspended to a final OD600 of 1 in a semi-synthetic medium (Per litre: 3 g KH2PO4, 1.9 g K2HPO4, 0.2 g yeast extract, 0.2 g MgSO4, 1.4 g NaCl, 1 g NH4Cl, 10 mg MnCl2, 1 mg Fe3Cl2, 1 mg CaCl2). […] The Corynebacteria which are able to conduct this biochemical reaction may be found in the group of the lipophilic and in the group of the non-lipophilic Corynebacteria. Therefore, a specific enzyme only present in some bacterial strains seems to be responsible for this cleavage. Since it releases axilla malodour the putative enzyme was named AMRE, which stands for ‘axillary malodour releasing enzyme’. […]

Data set [2] addresses T1, enzyme extracted from Corynebacterium striatum A×20 (AMRE, Nα-acyl-glutamine-aminoacylase) (Corynebacterium striatum, UniProt Q8GGD4).
T1 construct: an enzyme may be isolated from cellular extracts obtained from wild-type bacterial strains; endogenous in cells; host or cells: Corynebacterium striatum Ax20 (DSM 14267), mechanically disrupted; crude extract or chromatographically purified enzyme
As to the kind of experiment: Substrate specificity of the enzyme (capillary GC of released acid or alcohol). It is filed as biochemical. The note with it: for Cleavage by enzyme: 500 ppm in Buffer A, 24 h incubation. The protocol: To understand in detail the structural requirements of substrates, the enzyme extracted from Corynebacterium striatum A×20 was incubated with a wide variety of said compounds related to the originally isolated Nα-3-methyl-3-hydroxy-hexanoyl-L-glutamine present in sweat. Each compound was used at a concentration of 500 ppm in Buffer A, and analysis of released acid or alcohol was done by capillary GC after 24 h of incubation. First, different modifications at the N-terminus were tested.

Data set [3] deals with Staphylococcus capitis. Put plainly: Cleavage of the natural malodour precursor by axilla isolate Ax1. The settings on record: 500 ppm precursor, 24 h, 36° C., capillary GC. It is filed as cell-based. The procedure:
(§1) The axillary flora of 8 panellists was isolated with the detergent-scrub method: A 6 cm^2 area of the axilla was scrubbed with a phosphate buffer at pH 7 containing 1% Tween 80. The samples were spread-plated on tryptic soy agar amended with 5 g/L of Tween 80 and 1 g/L of lecithin. Single isolates obtained after 48 h incubation were subcultured and characterised. A total of 24 individual strains were identified based on colony and cell morphology, gram-reaction, lipophilic growth, lipase reaction and API identification kits (bioMerieux, France; coryneforms with the API coryne kit and cocci with the ID Staph 32 kit). The strains were grown overnight in a liquid medium (Mueller-Hinton amended with 0.01% Tween 80), harvested by centrifugation and resuspended to a final OD600 of 1 in a semi-synthetic medium (Per litre: 3 g KH2PO4, 1.9 g K2HPO4, 0.2 g yeast extract, 0.2 g MgSO4, 1.4 g NaCl, 1 g NH4Cl, 10 mg MnCl2, 1 mg Fe3Cl2, 1 mg CaCl2). Aliquots of this stationary culture were then amended with a final concentration of 500 ppm of Nα-3-hydroxy-3-methyl-hexanoyl-L-glutamine (5% stock solution dissolved in methanol). After 24 h incubation (with shaking at 300 rpm; 36° C.) the samples were extracted and the amount of released 3-hydroxy-3-methyl-hexanoic acid was determined by capillary GC. […]

For data set [4], the system named is Staphylococcus epidermidis. Put plainly: Cleavage of the natural malodour precursor by axilla isolate Ax6. It is filed as cell-based. The settings on record: 500 ppm precursor, 24 h, 36° C., capillary GC. The procedure:
as §1

Data set [5] relates to Micrococcus luteus. Put plainly: Cleavage of the natural malodour precursor by axilla isolate Ax9. It is filed as cell-based. The note with it: 500 ppm precursor, 24 h, 36° C., capillary GC. The procedure:
as §1

Data set [6] concerns Corynebacterium bovis. Put plainly: Cleavage of the natural malodour precursor by axilla isolate Ax3. Type of data set: cell-based. The note with it: 500 ppm precursor, 24 h, 36° C., capillary GC. The protocol: as §1
For data set [7], the system named is Corynebacterium group G. As to the kind of experiment: Cleavage of the natural malodour precursor by axilla isolate Ax7. Type of data set: cell-based. The note with it: 500 ppm precursor, 24 h, 36° C., capillary GC. The procedure:
as §1

Data set [8] deals with Corynebacterium jeikeium. Put plainly: Cleavage of the natural malodour precursor by axilla isolate Ax15. The settings on record: 500 ppm precursor, 24 h, 36° C., capillary GC. Type of data set: cell-based. The protocol:
as §1

The subject of data set [9] is Corynebacterium jeikeium. Put plainly: Cleavage of the natural malodour precursor by axilla isolate Ax19. The note with it: 500 ppm precursor, 24 h, 36° C., capillary GC. Type of data set: cell-based. The protocol:
as §1

For data set [10], the system named is Corynebacterium striatum. As to the kind of experiment: Cleavage of the natural malodour precursor by axilla isolate Ax20. Type of data set: cell-based. The settings on record: 500 ppm precursor, 24 h, 36° C., capillary GC. The protocol:
as §1

For data set [11], the target named is T2, enzyme heterologously expressed in E. coli TOP10 (pBADgIIIAMRE) (Corynebacterium striatum, UniProt Q8GGD4).
T2 construct: made in house; host or cells: E. coli TOP10 (Invitrogen), vector pBADgIIIA, arabinose-induced
T2 sequence (Q8GGD4 2-400): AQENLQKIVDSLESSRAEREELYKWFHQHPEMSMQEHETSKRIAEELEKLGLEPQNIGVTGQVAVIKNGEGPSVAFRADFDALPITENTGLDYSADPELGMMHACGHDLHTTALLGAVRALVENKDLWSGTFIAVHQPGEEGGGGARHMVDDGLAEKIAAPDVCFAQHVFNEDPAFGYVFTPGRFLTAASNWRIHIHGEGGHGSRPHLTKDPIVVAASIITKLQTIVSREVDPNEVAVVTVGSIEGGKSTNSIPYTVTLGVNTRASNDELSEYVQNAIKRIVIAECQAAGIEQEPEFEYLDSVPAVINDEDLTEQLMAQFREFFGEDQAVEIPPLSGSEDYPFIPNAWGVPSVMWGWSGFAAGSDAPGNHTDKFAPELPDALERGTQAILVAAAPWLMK
As to the kind of experiment: Enzyme assay with extracts of E. coli expressing the enzyme (release of lauric acid). It is filed as biochemical. The settings on record: 500 ppm substrate. An excerpt: The full-length sequence of the open reading frame coding for the enzyme was amplified with PCR from chromosomal DNA of A×20 using specific primers (SEQ ID NO 14 and SEQ ID NO 15). The amplified DNA fragment was then digested with the restriction enzymes NcoI and Hind III It was then ligated into the vector pBADIIIA (Invitrogen, Groningen, The Netherlands) pre-digested with the same enzymes. The resulting plasmid pBADgIIIAMRE was transformed into the host strain E. coli TOP10 (Invitrogen). This strain was grown in LB broth until it reached an optical density of about 0.5 at 600 nm. The culture was induced with arabinose (0.2% final concentration) incubated for 4 h, harvested by centrifugation and disrupted by ultrasonication. Enzyme assays with Na-lauryl-Glutamine as substrate were performed in Buffer A with an incubation time of 1 h and a substrate concentration of 500 ppm. Table 3 gives the activity of extracts obtained from wild-type cells and from extracts of the induced and non-induced modified strains expressing the enzyme.

In general, melting point refers to the temperature of the solid-liquid transition.

“Also recorded” adds a separate entry of the source.

T1 sequence (Q8GGD4 2-400): as above

On to `CCCCCCCCCCCC(=O)N[C@@H](CCC(N)=O)C(=O)O` [Nα-lauroyl-L-glutamine], for which the “release of lauric acid from substrate by axilla bacteria” value in data set [1] is “can release lauric acid”. Also, the “cleavage of substrate by enzyme (in words)” value in data set [2] is listed as “able to be cleaved; also recorded: can cleave”.
On to `CCCC(C)(O)CC(=O)N[C@@H](CCC(N)=O)C(=O)O` (stereo partly drawn) [compound 1, Nα-(3-hydroxy-3-methyl-hexanoyl)-L-glutamine], for which the 3-hydroxy-3-methyl-hexanoic acid released in [3] came to 0 ppm; in data set [4] it was 0 ppm; in [5], 0 ppm; in data set [6] it was 0 ppm; in data set [7], 0 ppm; in data set [8], 37.4 ppm. The figures for the 3-hydroxy-3-methyl-hexanoic acid released in [9] and in [10] were 105.1 ppm and 262.7 ppm, respectively. Moreover, the Cleavage by enzyme entry in [2] is reported as “++ (++ cleavage 10–50%)”.
`CCCCCCCCCCCC(=O)N[C@@H](CCC(N)=O)C(=O)O` [compound 2, Nα-lauroyl-L-glutamine]: the Cleavage by enzyme entry in [2] is “+++ (+++ cleavage over 50%)”. For the same molecule, the “release of lauric acid from Lauryl-Glutamine, 1 h incubation” value in data set [11] (extract of E. coli Top 10 (wild-type), 4 h after induction) is recorded as “below detection”; in data set [11] (extract of E. coli Top 10/pBADgIIIAMRE not induced), 23 ppm; in data set [11] (extract of E. coli Top 10 induced, 4 h after induction) it was 329 ppm.
In turn, `NC(=O)C[C@H](NC(=O)OCc1ccccc1)C(=O)O` [compound 12, Carbobenzyloxy-L-asparagine] displayed a melting point of 102 to 104 °C. The Cleavage by enzyme result in data set [2] is reported as “−”.

(Values after patent US7264956B2, “Compounds and methods for inhibiting axillary malodour” (Givaudan SA, priority 2001, dated 2007).)
